# Results as given in patent US20250179059A1 (The Regents of the University of California, priority 2021, published 2025).
# Where two headings read alike, the source gives them in different places.
# Key:
# [1] = biological target: T1, human BRD4 bromodomain II (Homo sapiens, UniProt O60885); experiment: Bromodomain binding assay (AlphaScreen), BRD4 BDII
# T1 construct: human BRD4 bromodomain II [based on Genbank NM_058243, residues 349-460]; host or cells: E. coli
# Outline: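 First, His6-tagged BRD4 bromodomain (BDI residues 44-170 or BDII residues 349-460) is incubated with compound for 30 min at room temperature. Next the biotinylated H4 peptide is added for 30 min, then donor and acceptor beads, with 60 min in the dark before AlphaScreen reading and IC50 fitting.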
# [2] = system: human SKM-1 acute myeloid leukemia cells; experiment: SKM-1 antiproliferation cell-based assay (ATPlite); conditions: Homo sapiens
# Outline: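 Log-phase cells in RPMI 1640/15% FBS were seeded at 34722 cells/mL and exposed for 4 days to nine-concentration DMSO serial dilutions in triplicate. Viability was read as ATP luminescence (ATPlite 1step), and IC50 values came from variable-slope non-linear regression.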
# [3] = AlphaScreen assay, Table C2, read-out: BRD4 BDII IC50
# [4] = SKM-1, 96 h, SKM-1 antiproliferation assay, 4 days, Table C2
# [5] = BRD4 BDII AlphaScreen assay, read-out: BRD4 BD2 IC50
# [6] = SKM-1, SKM-1 antiproliferation assay
"IC50 [1, 3] [nM]","GI50 [2, 4] [nM]","IC50 [1, 5] [nM]","GI50 [2, 6] [nM]",Structure (SMILES)
1 to 10,0.3 to 30,–,–,"Cn1ccn(-c2ccc(-c3cc(F)cc(-c4cccc(N5CC[C@](C)(N)C5)c4)c3O)cc2Cl)c1=O [Example 749, (S)-1-(3″-(3-amino-3-methylpyrrolidin-1-yl)-3-chloro-5′-fluoro-2′-hydroxy-[1,1′:3′,1″-terphenyl]-4-yl)-3-methyl-1H-imidazol-2(3H)-one]"
–,–,1 to 10,0.3 to 30,"Cc1cc(-c2ccc(-n3ccn(C)c3=O)c(Cl)c2)c(N)c(-c2cccc(N3CCN(C(C)(C)C)CC3)c2)n1 [Example 992, 1-(4-(3-Amino-2-(3-(4-(tert-butyl)piperazin-1-yl)phenyl)-6-methylpyridin-4-yl)-2-chlorophenyl)-3-methyl-1H-imidazol-2(3H)-one]"
1 to 10,300 to 3000,–,–,"Cn1ccn(-c2ccc(-c3cc(F)cc(-c4ccnc(N5CCCCC5)c4)c3O)cc2Cl)c1=O [Example 612, 1-(3-chloro-5′-fluoro-2′-hydroxy-3′-(2-(piperidin-1-yl)pyridin-4-yl)-[1,1′-biphenyl]-4-yl)-3-methyl-1H-imidazol-2(3H)-one]"
1 to 10,30 to 300,–,–,"CN1CCN(c2ccc(-c3cccc(-c4ccc(CO)c(N5CCNCC5)c4)c3O)cc2Cl)C1=O [Example 317, 1-(3-chloro-2′-hydroxy-4″-(hydroxymethyl)-3″-(piperazin-1-yl)-[1,1′:3′,1″-terphenyl]-4-yl)-3-methylimidazolidin-2-one]"
1 to 10,0.3 to 30,–,–,"CCC(=O)Nc1cc(-c2cc(F)cc(-c3ccc(-n4ccn(C)c4=O)c(Cl)c3)c2O)cc(N2CC[C@H](N)C2)n1 [Example 523, (S)-N-(6-(3-aminopyrrolidin-1-yl)-4-(3′-chloro-5-fluoro-2-hydroxy-4′-(3-methyl-2-oxo-2,3-dihydro-1H-imidazol-1-yl)-[1,1′-biphenyl]-3-yl)pyridin-2-yl)propionamide]"
1 to 10,30 to 300,–,–,"CN1CCN(c2ccc(-c3cc(F)cc(-c4cnc(N5CCCC5)c(N5CCNCC5)c4)c3O)cc2Cl)C1=O [Example 397, 1-(3-chloro-5′-fluoro-2′-hydroxy-3′-(5-(piperazin-1-yl)-6-(pyrrolidin-1-yl)pyridin-3-yl)-[1,1′-biphenyl]-4-yl)-3-methylimidazolidin-2-one]"
1 to 10,30 to 300,–,–,"Cn1ccn(-c2ccc(-c3cc(F)cc(-c4ccnc(N5CCC(C)(O)CC5)c4)c3O)cc2Cl)c1=O [Example 762, 1-(3-chloro-5′-fluoro-2′-hydroxy-3′-(2-(4-hydroxy-4-methylpiperidin-1-yl)pyridin-4-yl)-[1,1′-biphenyl]-4-yl)-3-methyl-1,3-dihydro-2H-imidazol-2-one]"
1 to 10,300 to 3000,–,–,"C[C@@H]1CN(c2cc(-c3cccc(-c4ccc(N5CCCC5=O)c(F)c4)c3O)ccn2)CCN1 [Example 252, (R)-1-(3-fluoro-2′-hydroxy-3′-(2-(3-methylpiperazin-1-yl)pyridin-4-yl)-[1,1′-biphenyl]-4-yl)pyrrolidin-2-one]"
0.01 to 1,0.3 to 30,–,–,"Cc1ncc(-c2cc(F)cc(-c3ccc(-n4ccn(C)c4=O)c(Cl)c3)c2O)cc1N1CC(C)(O)C2(CC2)C1 (stereo not shown) [Example 829, 1-(3-chloro-5′-fluoro-2′-hydroxy-3′-(5-(7-hydroxy-7-methyl-5-azaspiro[2.4]heptan-5-yl)-6-methylpyridin-3-yl)-[1,1′-biphenyl]-4-yl)-3-methyl-1H-imidazol-2(3H)-one]"
0.01 to 1,0.3 to 30,–,–,"Cn1ccn(-c2ccc(-c3cc(F)cc(-c4ccnc(N5CCN(CCN)CC5)c4)c3O)cc2Cl)c1=O [Example 616, 1-(3′-(2-(4-(2-aminoethyl)piperazin-1-yl)pyridin-4-yl)-3-chloro-5′-fluoro-2′-hydroxy-[1,1′-biphenyl]-4-yl)-3-methyl-1H-imidazol-2(3H)-one]"
1 to 10,30 to 300,–,–,"[2H]C([2H])([2H])n1ccn(-c2ccc(-c3cc(F)cc(-c4ccnc(N5CC6(CNC6)C5)c4)c3O)cc2Cl)c1=O [Example 492, 1-(3′-(2-(2,6-diazaspiro[3.3]heptan-2-yl)pyridin-4-yl)-3-chloro-5′-fluoro-2′-hydroxy-[1,1′-biphenyl]-4-yl)-3-deuteromethyl-1H-imidazol-2(3H)-one]"
1 to 10,0.3 to 30,–,–,"Cn1ccn(-c2ccc(-c3cc(Cl)cc(-c4ccnc(N5CC[C@H](N)C5)c4)c3O)cc2Cl)c1=O [Example 539, (S)-1-(3′-(2-(3-aminopyrrolidin-1-yl)pyridin-4-yl)-3,5′-dichloro-2′-hydroxy-[1,1′-biphenyl]-4-yl)-3-methyl-1H-imidazol-2(3H)-one]"
1 to 10,0.3 to 30,–,–,"Cn1ccn(-c2ccc(-c3cc(F)cc(-c4ccnc(N5CCN(C6COC6)CC5)c4)c3O)cc2Cl)c1=O [Example 528, 1-(3-chloro-5′-fluoro-2′-hydroxy-3′-(2-(4-(oxetan-3-yl)piperazin-1-yl)pyridin-4-yl)-[1,1′-biphenyl]-4-yl)-3-methyl-1H-imidazol-2(3H)-one]"
0.01 to 1,0.3 to 30,–,–,"Cn1ccn(-c2ccc(-c3cc(F)cc(-c4ccc(F)c(N5CCN(C(C)(C)C)CC5)c4)c3O)cc2Cl)c1=O [Example 719, 1-(3″-(4-(tert-butyl)piperazin-1-yl)-3-chloro-4″,5′-difluoro-2′-hydroxy-[1,1′:3′,1″-terphenyl]-4-yl)-3-methyl-1H-imidazol-2(3H)-one]"
1 to 10,0.3 to 30,–,–,"CC(=O)Nc1cc(-c2cc(F)cc(-c3ccc(-n4ccn(C)c4=O)c(Cl)c3)c2O)cc(N2CC[C@H](N)C2)n1 [Example 503, (S)-N-(6-(3-aminopyrrolidin-1-yl)-4-(3′-chloro-5-fluoro-2-hydroxy-4′-(3-methyl-2-oxo-2,3-dihydro-1H-imidazol-1-yl)-[1,1′-biphenyl]-3-yl)pyridin-2-yl)acetamide]"
1 to 10,30 to 300,–,–,"CN1CCN(c2ccc(-c3cc(F)cc(-c4cnc(CCO)c(N5CCNCC5)c4)c3O)cc2Cl)C1=O [Example 428, 1-(3-chloro-5′-fluoro-2′-hydroxy-3′-(6-(2-hydroxyethyl)-5-(piperazin-1-yl)pyridin-3-yl)-[1,1′-biphenyl]-4-yl)-3-methylimidazolidin-2-one]"
–,–,0.01 to 1,30 to 300,Cn1ccn(-c2ccc(-c3cc(F)cc(-c4cccc(N5CCN(C(C)(C)C)CC5=O)c4)c3O)cc2Cl)c1=O [Example 901]
10 to 100,30 to 300,–,–,"CC(=O)Nc1ccc(-c2cc(F)cc(-c3ccnc(N4CC5(CNC5)C4)c3)c2O)cc1F [Example 321, N-(3′-(2-(2,6-diazaspiro[3.3]heptan-2-yl)pyridin-4-yl)-3,5′-difluoro-2′-hydroxy-[1,1′-biphenyl]-4-yl)acetamide]"
1 to 10,0.3 to 30,–,–,"CC(C)N1CCN(c2cc(-c3cc(F)cc(-c4ccc(-n5ccn(C)c5=O)c(Cl)c4)c3O)cnc2C(F)(F)F)CC1 [Example 804, 1-(3-chloro-5′-fluoro-2′-hydroxy-3′-(5-(4-isopropylpiperazin-1-yl)-6-(trifluoromethyl)pyridin-3-yl)-[1,1′-biphenyl]-4-yl)-3-methyl-1H-imidazol-2(3H)-one]"
10 to 100,300 to 3000,–,–,"O=C1OCCN1c1ccc(-c2cc(F)cc(-c3ccnc(N4CCNCC4)c3)c2O)cc1Cl [Example 371, 3-(3-chloro-5′-fluoro-2′-hydroxy-3′-(2-(piperazin-1-yl)pyridin-4-yl)-[1,1′-biphenyl]-4-yl)oxazolidin-2-one]"
–,–,> 100,300 to 3000,"Cn1ccn(-c2c(O)cc(-c3cc(F)cc(-c4cccc(N5CCN(C(C)(C)C)CC5)c4)c3O)cc2Cl)c1=O [Example 952, 1-(3″-(4-(tert-butyl)piperazin-1-yl)-3-chloro-5′-fluoro-2′,5-dihydroxy-[1,1′:3′,1″-terphenyl]-4-yl)-3-methyl-1H-imidazol-2(3H)-one]"
0.01 to 1,0.3 to 30,–,–,"CN(C)[C@H]1CCN(c2cncc(-c3cc(F)cc(-c4ccc(-n5ccn(C)c5=O)c(Cl)c4)c3O)c2)C1 [Example 475, (S)-1-(3-chloro-3′-(5-(3-(dimethylamino)pyrrolidin-1-yl)pyridin-3-yl)-5′-fluoro-2′-hydroxy-[1,1′-biphenyl]-4-yl)-3-methyl-1H-imidazol-2(3H)-one]"
–,–,> 100,0.3 to 30,COC(=O)OCOc1c(-c2ccc(-n3ccn(C)c3=O)c(Cl)c2)cc(F)cc1-c1cnc(C)c(N2CCN(C(C)C)CC2)c1 [Example 878]
1 to 10,30 to 300,–,–,"Cn1ccn(-c2ccc(-c3cc(F)cc(-c4cccc(N5CC[C@@](C)(O)C5)c4)c3O)cc2Cl)c1=O [Example 807, (R)-1-(3-chloro-5′-fluoro-2′-hydroxy-3″-(3-hydroxy-3-methylpyrrolidin-1-yl)-[1,1′:3′,1″-terphenyl]-4-yl)-3-methyl-1H-imidazol-2(3H)-one]"
–,–,1 to 10,0.3 to 30,"Cn1ccn(-c2ccc(-c3cc(F)cc(-c4cccc(N5CCN(C(C)(C)C)CC5)c4)c3O)cc2F)c1=O [Example 945, 1-(3″-(4-(tert-butyl)piperazin-1-yl)-3,5′-difluoro-2′-hydroxy-[1,1′:3′,1″-terphenyl]-4-yl)-3-methyl-1H-imidazol-2(3H)-one]"
–,–,1 to 10,30 to 300,"COc1ncc(-c2cc(F)cc(-c3ccc(-n4cc(C)n(C)c4=O)c(Cl)c3)c2O)cc1N1CCN(C(C)(C)C)CC1 [Example 982, 1-(3′-(5-(4-(tert-butyl)piperazin-1-yl)-6-methoxypyridin-3-yl)-3-chloro-5′-fluoro-2′-hydroxy-[1,1′-biphenyl]-4-yl)-3,4-dimethyl-1H-imidazol-2(3H)-one]"
